This passage reports binary diffusion coefficient results from the NIST ThermoML archive (doi:10.1021/acs.jced.8b00110).

Structures are written as SMILES.

A short description of this series: xn = mol fraction of the nth substance listed. The settings on record: Liquid, phase equilibration, x1 = 0.05.

Regarding `FC(F)(F)/C=C/Cl` [(E)-1-chloro-3,3,3-trifluoroprop-1-ene] + CCCCCC[n+]1ccn(C)c1.O=S(=O)([N-]S(=O)(=O)C(F)(F)F)C(F)(F)F, the binary diffusion coefficient by setting is: (303.2 K) 2.9e-10 m2/s; (313.1 K) 3.8e-10 m2/s; (323.2 K) 4.1e-10 m2/s; (333.2 K) 5.7e-10 m2/s; (343.2 K) 8.3e-10 m2/s.

`FC(F)(F)/C=C/Cl` [(E)-1-chloro-3,3,3-trifluoroprop-1-ene] + CCCCCCn1cc[n+](C)c1.F[B-](F)(F)F: the binary diffusion coefficient runs as follows: (303.2 K) 3.3e-10 m2/s; (313.1 K) 4.6e-10 m2/s; (323.2 K) 6.1e-10 m2/s; (333.2 K) 9.6e-10 m2/s; (343.2 K) 1.68e-09 m2/s.

As to `FC(F)(F)/C=C/Cl` [(E)-1-chloro-3,3,3-trifluoroprop-1-ene] + CCCCCCn1cc[n+](C)c1.O=S(=O)([O-])C(F)(F)F, the binary diffusion coefficient reads like this: (303.2 K) 5.2e-10 m2/s; (313.1 K) 7.8e-10 m2/s; (323.2 K) 1.04e-09 m2/s; (333.2 K) 1.69e-09 m2/s; (343.2 K) 2.62e-09 m2/s.
